This is an account of results in patent US7514411B2, “Acylated benzylmaltosides as inhibitors of smooth muscle cell proliferation” (Wyeth, priority 1998, dated 2009).

Series [1] has as its system Porcine Smooth Muscle Cell. Kind of series: Effects of compounds on cell proliferation using 3H thymidine incorporation. In kind it is cell-based. The following applies: Sus scrofa; @ 50 μM; read-out: Porcine Smooth Muscle Cell Antiproliferation percent inhibition. As for the experimental part:
The compounds of this invention are useful as antiproliferative agents. The following procedures show the evaluation of representative compounds of this invention in standard pharmacological test procedure which measured ability of the evaluated compound to inhibit smooth muscle cell proliferation
Effects of Compounds On Cell Proliferation Using ^3H Thymidine Incorporation
Human and porcine smooth muscle cells were tested in early passage (generally passage 3-7) at sub-confluent conditions. Cultures were grown in 16 mm (24 well) multi-well culture dishes in medium 199 supplemented with 10% fetal bovine serum and 2% antibiotic/antimycotic. At sub-confluence, the cells were placed in a defined serum free medium (AIM-V; Gibco) for 24-48 h prior to initiating the experimental protocol.
Compounds were added to each well at 50 fold dilution (20 μL/well) and the plates were incubated for 24-36 h at 37° C. in 5% CO2. Compounds were initially dissolved in 50% ethanol and serially diluted into media. Compounds were routinely evaluated at concentrations from 1 to 100 μM. As a control, grade II porcine intestinal mucosal heparin (sodium salt) was routinely evaluated in all cell preparations at concentrations from 0.1 to 100 μg/mL.
At the completion of the test procedure, plates were placed on ice, washed three times with ice cold phosphate buffered saline (PBS) and incubated in ice cold 10% trichloroacetic acid (TCA) got 30 min to remove acid soluble proteins. Solution was transferred to scintillation vials containing 0.4 N HCl (500 μL/vial to neutralize NaOH) and each well was rinsed two times with water (500 μL) for a total volume of 2 mL/vial.
Data was obtained, in triplicate, for both control and experimental samples. Control (100%) data was obtained from maximally stimulated cells, as the result of growth factor or serum stimulation. Experimental data was obtained from cells maximally stimulated with growth factor or serum and treated with compound. Data are expressed as an IC50 or percent inhibition in Table I below.
A general note: Uptake of a labelled nucleoside into DNA is a usual measure of proliferation.

`O=C(Nc1cc(CO[C@@H]2O[C@H](CO)[C@@H](O[C@H]3O[C@H](CO)[C@@H](O)[C@H](O)[C@H]3O)[C@H](O)[C@H]2O)ccc1Cl)c1cccnc1` [Example 16, N-[2-Chloro-5-[[(4-O-α-D-glucopyranosyl-β-D-glucopyranosyl)oxy]methyl]phenyl]-3-pyridinecarboxamide]: the melting point (commonly the temperature, or range, at which the solid turns liquid) is > 106 °C (dec.). The inhibition at 50 µM in series [1] came out at 18%.
